Data set [1] is described as follows: Cytoprotective activity against corticosterone-induced […] PC12 cell damage assessed as cell viability at 50 uM (reference value: 51.13 to 51.51 %). Format: functional. Conditions: Rattus norvegicus, PC-12, read-out: Activity.
Data set [2] can be described thus: Toxicity in […] PC12 cells at 50 uM. The data set is classed as cell-based, Rattus norvegicus. Conditions: pc12, 50 µM.
A short description of data set [3]: Toxicity in SPF ICR mouse assessed as body weight at 7 mg/kg, po via gavage administered daily for 7 days measured on day 7 (reference value: 29.54 +/- 1.87 g). Format: organism-based. The note with it: in vivo, 168 h, time 7 day.
The subject of data set [4] is Mus musculus. In words: Antidepressant activity in SPF ICR mouse assessed as decrease in immobility duration at 7 mg/kg, po via gavage administered daily for 7 days measured post-last dose by forced swimming test relative to control. Set-up: scale not given: the % may be the effect or the level left. Conditions: time 7 day. Format: functional.
A short description of data set [5]: Toxicity in SPF ICR mouse assessed as body weight at 7 mg/kg, po administered via gavage measured on day 1 (reference value: 22.24 +/- 0.9 g). Format: organism-based. The note with it: in vivo, 24 h, time 1 day.
Data set [6] is described as follows: Cytoprotective activity against corticosterone-induced […] PC12 cell damage assessed as cell viability at 50 uM preincubated for 1 hr followed by corticosterone stimulation and measured after 24 hrs (reference value: 51.13 to 51.51 %). Format: functional. The note with it: PC-12, time 25 hrs, read-out: Activity.
Data set [7] has as its system Mus musculus. Kind of data set: Antidepressant activity in SPF ICR mouse assessed as decrease in immobility duration at 7 mg/kg, po via gavage administered daily for 7 days measured post-last dose by tail suspension test relative to control. Format: functional. Conditions: time 7 day. Also noted: scale not given: the % may be the effect or the level left.
Data set [8] in a line: Cytoprotective activity against corticosterone-induced […] PC12 cells assessed as cell survival at 5 uM preincubated for 1 hr followed by corticosterone stimulation and measured after 24 hrs (reference value: 51.13 to 51.51 %). Format: functional. Conditions: PC-12, time 25 hrs, read-out: Activity.
Data set [9] is described as follows: Cytoprotective activity against corticosterone-induced […] PC12 cells assessed as cell survival at 10 uM preincubated for 1 hr followed by corticosterone stimulation and measured after 24 hrs (reference value: 51.13 to 51.51 %). Format: functional. The note with it: PC-12, time 25 hrs, read-out: Activity.
A short description of data set [10]: Toxicity in SPF ICR mouse assessed as body weight growth at 7 mg/kg, po via gavage administered daily for 7 days (reference value: 32.62 +/- 6.17 %). Format: organism-based. Conditions: in vivo, 168 h, time 7 day.
Data set [11] can be described thus: Cytoprotective activity against corticosterone-induced […] PC12 cell damage assessed as cell viability at 5 uM (reference value: 51.13 to 51.51 %). The data set is classed as functional. The note with it: PC-12, read-out: Activity.
Data set [12] can be described thus: Cytoprotective activity against corticosterone-induced […] PC12 cell damage assessed as cell viability at 10 uM (reference value: 51.13 to 51.51 %). The data set is classed as functional. Conditions: PC-12, read-out: Activity.
In data set [13] the test system is PC12. Kind of data set: Cytoprotective activity against corticosterone-induced […] PC12 cell damage assessed as increase in cell survival. Format: functional, cell-based. The note with it: dose 5-50 µM.

The structures appear in SMILES notation.

As to `COc1cc2c(cc1OC)CN(C(=O)c1ccc(C(F)(F)F)cc1)CC2`, the viability at 50 µM in data set [1] was determined as 48.3%. In addition, the Activity result in [2] is “Toxic”.

Consider `CCN1CCc2cc(OC)c(OC)cc2C1`, for which the viability at 50 µM in data set [1] was 58.9%. Besides, the Activity result in [2] was “Non-Toxic”.

With `COc1cc2c(cc1OC)CN(C=O)CC2`, in data set [1], the viability at 50 µM is 49.9%. Also, the Activity entry in data set [2] is listed as “Toxic”.

As to `COc1cc2c(cc1OC)CN(C(=O)c1ccc(F)cc1)CC2`, the viability at 50 µM in [1] was 49.6%. Moreover, the Activity result in data set [2] is listed as “Toxic”.

Consider `COc1cc2c(cc1OC)CN(C(=O)Cc1ccc(O)cc1)CC2`, for which the viability at 50 µM in [1] is 42.4%. Besides, the Activity entry in data set [2] is “Toxic”.

As for `COc1cc2c(cc1OC)CN(C)CC2`, the viability at 50 µM in [1] turned out to be 54.5%. Further, the Activity result in data set [2] is reported as “Non-Toxic”.

Regarding `COc1ccc(CC(=O)N2CCc3cc(OC)c(OC)cc3C2)cc1`, the viability at 50 µM in data set [1] turned out to be 51.9%.

Turning to `COc1ccc(CCCN2CCc3cc(OC)c(OC)cc3C2)cc1`, the viability at 50 µM in data set [1] is 51.8%. Besides, the Activity entry in [2] was “Non-Toxic”.

Turning to `COc1cc2c(cc1OC)CN(CCc1ccc(F)cc1)CC2`, in [1], the viability at 50 µM was 38.2%.

Take `COc1cc2c(cc1OC)CN(CCc1ccc(O)cc1)CC2`: in data set [1], the viability at 50 µM was 50.4%. The Activity result in data set [2] is reported as “Non-Toxic”.

As to `COc1ccc2c(c1O)-c1c(O)c(OC)cc3c1[C@H](C2)[N+](C)(C)CC3` [MAGNOFLORINE], the Activity came to 29.44 g in [3]; 68.61% in data set [4]; 24.21 g in data set [5]; 65.65% in data set [7]; 21.15% in data set [10]. Also, in data set [6], the viability at 50 µM was 48.6%. In addition, the viability at 5 µM in data set [8] was found to be 48.6%. Also, in data set [9], the viability at 10 µM came to 73.7%.

As for `COc1cc2c(cc1OC)CN(Cc1ccccc1)CC2`, in data set [1], the viability at 50 µM was determined as 49.6%. The Activity entry in data set [2] is recorded as “Non-Toxic”.

For `COc1cc2c(cc1OC)CN(C(=O)c1ccc(OC(C)=O)cc1)CC2`, in [1], the viability at 50 µM is 48.4%. For the same molecule, the Activity entry in data set [2] is reported as “Toxic”.

`COc1cc2c(cc1OC)CN(C(=O)c1cccs1)CC2`: the viability at 50 µM in data set [1] turned out to be 58.5%.

For `COc1cc2c(cc1OC)CN(C(=O)c1ccncc1)CC2`, the viability at 50 µM in [1] amounted to 51.2%.

As for `COc1cc2c(cc1OC)CN(C(=O)c1ccc(O)cc1)CC2`, the viability at 50 µM in data set [1] came out at 39.8%. The Activity result in data set [2] is reported as “Toxic”.

For the molecule `COc1ccc(C(=O)N2CCc3cc(OC)c(OC)cc3C2)cc1`, in [1], the viability at 50 µM was 44.8%. Moreover, in data set [2], the Activity result is recorded as “Toxic”.

As for `COc1cc2c(cc1OC)CN(C(=O)c1ccccc1O)CC2`, the viability at 50 µM in data set [1] stood at 47.3%. Moreover, the Activity result in data set [2] is listed as “Toxic”.

`COc1cc2c(cc1OC)CN(Cc1ccc(F)cc1)CC2`: the viability at 50 µM in data set [1] came to 49.5%. The Activity result in [2] is listed as “Non-Toxic”.

With `COc1cc2c(cc1OC)CN(C(=O)c1ccccc1)CC2`, in data set [1], the viability at 50 µM was 35.6%. In addition, the Activity result in data set [2] is on record as “Toxic”.

Take `COc1cc2c(cc1OC)CNCC2`: the viability at 5 µM in data set [11] was 65.7%. In addition, the viability at 50 µM in data set [1] was determined as 45.8%. Besides, in [12], the viability at 10 µM is 57%.

As to `COc1cc2c(cc1OC)CN(CCc1ccccc1)CC2`, in data set [1], the viability at 50 µM came out at 54.2%. The Activity result in data set [2] is listed as “Non-Toxic”.

With `COc1ccc(CN2CCc3cc(OC)c(OC)cc3C2)cc1`, the viability at 50 µM in [1] stood at 51.8%. The Activity result in data set [2] is reported as “Non-Toxic”.

As for `COc1ccc(CCN2CCc3cc(OC)c(OC)cc3C2)cc1`, the viability at 5 µM in data set [11] worked out at 49.1%. The Activity in [3] was 27.5 g; in data set [4] it was 57.65%; in [5], 21.3 g; in [13], “Dose-Dependent Effect”; in [2], “Non-Toxic”; in data set [7], 65.85%. The Activity in [10] amounted to 29.58%. Moreover, the viability at 50 µM in [1] is 69.3%. In data set [12], the viability at 10 µM is 65%.

`COc1cc2c(cc1OC)CN(C(=O)c1cc3ccccc3[nH]1)CC2`: in data set [1], the viability at 50 µM worked out at 62.8%.

`COc1cc2c(cc1OC)CN(C(=O)C(C)(C)C)CC2`: the viability at 50 µM in data set [1] amounted to 33.7%. In addition, the Activity result in data set [2] is listed as “Toxic”.

Turning to `COc1cc2c(cc1OC)CN(C(C)=O)CC2`, in [1], the viability at 50 µM was 37.2%. The Activity result in data set [2] is given as “Toxic”.

These data come from ChEMBL document CHEMBL5365470, “Design, synthesis, and biological evaluation of THIQ as antidepressive agents” (Bioorg Med Chem Lett, 2023).
